Measured values: US20260315446A1, “ANTIFUNGAL COMPOUNDS AND USES THEREOF” (priority 2023, published 2026)
In brackets after ≈: the same amount, converted by molar mass. Like-named read-outs stand apart in the source and are kept apart here.

Tests used:
[1] = tested on: Cryptococcus neoformans; assay: MIC assay (Example 3); assay type: cell-based; details: Cryptococcus neoformans
Protocol: (§1) In vitro antifungal activity was assessed for all fungal strains in RPMI 1640 (Sigma-Aldrich R1383). MICs were measured using Clinical and Laboratory Standards Institute (CLSI) M38-A2 and M27-A3 standard in vitro antifungal susceptibility protocols. C. neoformans and A. fumigatus testing was performed at 37° C. MECs for A. fumigatus were recorded after 48 h of growth. C. albicans testing was performed at 30° C. with a uniform concentration of 2 μg/mL of fluconazole to sensitize the cells to calcineurin inhibition.
(§2) C. neoformans clinical isolate H99 and congenic-derived strain KN99α were used (see, Nielsen K, et al., 2003. Infect Immun 71:4831-4841). KN99α-derived frr1Δ deletion mutants with nourseothricin resistance markers as part of the Madhani deletion collection (NIH funding R01AI100272) were used. C. deneoformans strains used include JEC21 and derived C21F2 (CNB1-1) and C21F3 (frr1-3) strains (see, Odom A, et al., 1997. EMBO J 16:2576-2589; Moore T D, Edman J C. 1993. Mol Cell Biol 13:1962-1970; Fox D S, et al., 2001. Mol Microbiol 39:835-849). C. albicans strain SC5314 is the wild-type strain from which mutants YAG171 (rbp1/rbp1) and YAG237 (CNB1-1/CNB1) were derived (see, Cruz M C, et al., 2001. Antimicrob Agents Chemother 45:3162-3170). A. fumigatus strain akuB^Ku80 and a derived FKBP12 mutant fkbp12A were used during antifungal screening (see, Falloon K, et al., 2015. PLoS One 10:e0137869).

[2] = tested on: IL-2 expression in primary mouse CD4+ T cells (mammalian calcineurin); assay: In vitro immunosuppressive activity, IL-2 expression (Example 3); assay type: cell-based; details: 72 h
Protocol: Modifications at the C-22 position reduce inhibition of mammalian calcineurin signaling Mammalian calcineurin inhibition was then assessed and found to be reduced for these FK520 analogs. The inhibition of mammalian calcineurin was assessed by measuring the reduction of IL-2 expression from primary mouse CD4^+ T cells cultured in the presence of FK506, FK520, or an analog. Calcineurin activity is required for T cell activation and cytokine production, and IL-2 production serves as an effective measure of mammalian calcineurin activity. After culturing mouse CD4′ T cells for 72 h, IL-2 expression was analyzed by flow cytometry to evaluate the immunosuppressive activity of the analogs. […] However, compound concentrations that permit high IL-2 expression are less likely to result in cell death.
Spleen and lymph nodes from C57BL/6 mice were collected and homogenized through a 40-μm filter. Pan-CD4^+ T cells were enriched using the MagniSort Mouse CD4 T Cell Enrichment Kit (Invitrogen). Thereafter, CD4^+CD25^−CD62L^hiCD44^lo naïve CD4^+ T cells were FACS-sorted using a MoFlo Astrios cell sorter (Beckman Coulter). Naïve CD4^+ T cells were cultured in Iscove's Modified Dulbecco's Medium supplemented with 10% fetal bovine serum (FBS), penicillin (10 U/mL), streptomycin (10 μg/mL), glutamine (2 mM), gentamicin (50 μg/mL), and β-mercaptoethanol (55 μM). Cells were cultured for 72 h on anti-hamster IgG-coated plates with hamster anti-CD3s antibodies, hamster anti-CD28 antibodies, neutralizing anti-IL-4 antibodies, recombinant IL-12 (10 ng/mL), and recombinant IL-2 (50 U/mL). During this culture, cells were incubated with serially diluted drugs suspended in DMSO.

[3] = Solubility in microdilution broth assays; assay type: physicochemical
Protocol: FIG. 12: Low-solubility compounds in MIC assay. Representative image of MIC assay read by plate reader with growth indicated on a range from 0.04 to 0.1 OD, black to green coloration. Starting concentration 50 μg/mL for all drugs. (A) H99 cultured in wells, and (B) wells contain RPMI media and no fungal cells with green coloration indicative of false positive growth caused by drug insolubility.
To assess antifungal activity, the panel of compounds was tested for fungal growth inhibition using minimum inhibitory concentration (MIC) assays against C. neoformans and C. albicans and minimum effective concentration (MEC) assays against A. fumigatus. […] MEC values against A. fumigatus ranged from 0.6 to 2.5 μg/mL for 10 of the analogs tested. […] Overall, a majority of these analogs maintain relatively potent antifungal activity across species and represent an active library for further investigation.

[4] = tested on: C. neoformans growth versus IL-2 in murine T cells; assay: Therapeutic index score (immunosuppressive fold change to antifungal fold change relative to FK506); parameters: species or system Cryptococcus neoformans; mouse; details: Example 3; C. neoformans H99, FK506 = 1.0
Description: To assess the therapeutic potential for these compounds, it was important to develop an approach to score and rank them based on antifungal and immunosuppressive activities. The therapeutic index score (TIscore) is a ratio of the immunosuppressive fold change to the antifungal fold change, with all values relative to the baseline FK506 activity (FIG. 6B). A TIscore of >1.0 indicates an increase in fungal specificity because the fold change of the immunosuppressive reduction is greater than the antifungal activity reduction. As an example, JH-FK-05 is 20-fold reduced for antifungal activity but about 180-fold reduced for immunosuppression. Therefore, the TIscore of JH-FK-05 is 9.1 (TIscore=182/20). The top two analogs were JH-FK-02 (TIscore=9.7) and JH-FK-05 (TIscore=9.1). Due to the similar TIscore, JH-FK-05 was prioritized to advance to animal trials on the merit of more pronounced antifungal activity compared to JH-FK-02.
Based on the in vitro fungal and mammalian calcineurin inhibition data, the panel of FK520 analogs was assessed and ranked. Therapeutic index (TI) scores were used to quantify the effects of structural modification on the compounds (Table 8). Therapeutic index scores were calculated for each analog as the ratio of relative change in immunosuppressive and antifungal activities compared to FK506 as previously utilized (see, I-Toy M J, et at. 2022. mBio 13:e0104922). This ratio of therapeutic benefit and host toxicity, or fungal and mammalian calcineurin inhibition, allowed us to quantify and rank these analogs. […] This is the greatest TI found within the library and allowed us to identify JH-FK-08 as a lead candidate for an in vivo study. Tolerability of JH-FK-08 was assessed by monitoring animal responses to drug dosing across 14 days, including changes in weight, fur condition, and behavior. A maximum dose of 40 mg/kg was tested in once a day dosing, and due to solubility limitations, the tolerability of JH-FK-08 at 60 and 80 mg/kg total daily doses was assessed by dosing two equal doses per day (FIG. 14). […] It should be noted that analogs JH-FK-12 and JH-FK-23 are also promising candidates with respective Tis of 24.7 and 24.5.

[5] = tested on: Candida albicans; assay: MIC assay (Example 3); assay type: cell-based; details: Candida albicans, SC5314; MIC80, 30° C. with 2 μg/mL fluconazole; read-out: MIC against Candida albicans (SC5314)
Protocol: as §1, §2

[6] = tested on: Aspergillus fumigatus; assay: MEC assay (Example 3); details: strain akuB^Ku80
[7] = tested on: cryptococcosis; details: cited from earlier work
[8] = MIC90, 37° C., read-out: MIC against Cryptococcus neoformans (H99)

SMILES	MIC ([1]; Table 8, read-out: H99 MIC90) [µg/mL]	IC50 [2] [nM]	solubility during microdilution broth assays [3]	Therapeutic index [4]	MIC [5] [µg/mL]	MIC [1, 8] [µg/mL]	MEC against Aspergillus fumigatus (akuB^Ku80) [6] [µg/mL]	interaction with fluconazole in pulmonary cryptococcosis model ([7]; in vivo combination therapy with fluconazole)	fungal burden in animal model of cryptococcosis ([7]; in vivo)
CC[C@@H]1/C=C(\C)C[C@H](C)C[C@H](OC)[C@H]2O[C@@](O)(C(=O)C(=O)N3CCCC[C@H]3C(=O)O[C@H](/C(C)=C/C3CC[C@@H](O)[C@H](OC)C3)[C@H](C)[C@@H](O)C/C1=N/NS(=O)(=O)c1ccc(C)cc1)[C@H](C)C[C@@H]2OC (stereo partly shown) [JH-FK-13]	> 50	> 200	exhibited solubility issues	–	–	–	–	–	–
CC[C@@H]1/C=C(\C)C[C@H](C)C[C@H](OC)[C@H]2O[C@@](O)(C(=O)C(=O)N3CCCC[C@H]3C(=O)O[C@H](/C(C)=C/C3CC[C@@H](O)[C@H](OC)C3)[C@H](C)[C@@H](O)C/C1=N/NC(=O)c1ccc(F)cc1)[C@H](C)C[C@@H]2OC (stereo partly shown) [JH-FK-17]	0.4 (≈ 0.431 µM)	9.4	exhibited solubility issues	13.1	0.4 (≈ 0.431 µM)	0.4 (≈ 0.431 µM)	1.3	–	–
C=CC[C@@H]1/C=C(\C)C[C@H](C)C[C@H](OC)[C@H]2O[C@@](O)(C(=O)C(=O)N3CCCC[C@H]3C(=O)O[C@H](/C(C)=C/[C@@H]3CC[C@@H](O)[C@H](OC)C3)[C@H](C)[C@@H](O)CC1=NNC(C)=O)[C@H](C)C[C@@H]2OC [JH-FK-01]	–	–	–	–	–	–	–	benefits from this synergistic interaction	significantly reduced fungal burden
CC[C@@H]1/C=C(\C)C[C@H](C)C[C@H](OC)[C@H]2O[C@@](O)(C(=O)C(=O)N3CCCC[C@H]3C(=O)O[C@H](/C(C)=C/C3CC[C@@H](O)[C@H](OC)C3)[C@H](C)[C@@H](O)C/C1=N/NC(=O)c1ccc3ccccc3c1)[C@H](C)C[C@@H]2OC (stereo partly shown) [JH-FK-15]	3.1 (≈ 3.23 µM)	17.4	exhibited solubility issues	3.1	0.4 (≈ 0.417 µM)	3.1 (≈ 3.23 µM)	0.3	–	–
